According to patent publication US11415513B2, “Method for determining the degree of sensitivity of a strain of fungus to an antifungal agent” (UNIVERSITE GRENOBLE ALPES, priority 2015, dated 2022):
Converted amounts (≈) assume the structure as drawn. Read-outs that look alike come from different tables or passages of the source. Starred links: 1 amine or outer side, 2 acyl side, 3 side chain; linkers in the order of their positions; H or OH if unused. Positions of bridges follow the written chain, without caps; N, C: chain ends. Non-standard residues stand in square brackets, D forms with d. Residues, ends and D or L forms follow the SMILES beside them. *: point of attachment. hTyr(3S-OH,4S-OH,3'-OSO3H) = N[C@H](C(=O)O)[C@H](O)[C@@H](O)c1ccc(O)c(OS(=O)(=O)O)c1; Orn(4R-OH,5R-OH) = O=C([C@H](C[C@@H](O)[C@@H](O)N[*:3])N[*:1])[*:2]; Pro(3S-OH,4S-Me) = C[C@H]1CN[C@H](C(=O)O)[C@H]1O; X1 = CCCCCOc1ccc(-c2cc(-c3ccc(C(=O)*)cc3)no2)cc1; Gln(3R-OH) = NC(=O)C[C@@H](O)[C@H](N)C(=O)O; Hyp = O=C(O)[C@@H]1C[C@@H](O)CN1

Key:
[1] = test system: strain ATCC®7349 of C. tropicalis; experiment: Sensitivity test by HCA microscopy (chitin level, Calcofluor White; cell count); format: cell-based, Candida tropicalis; settings: SC medium; for decrease of the number of cells / increase of the chitin level in the wall of the cells: vs cells in the absence of antifungal agent; for increase of the chitin level in the wall of the cells: concentration gradient of Table 1
Description: (§1) The strains of Candida were incubated beforehand at 30° C. overnight in a yeast extract medium—peptone dextrose (YPD) (1% bacto peptone, 0.5% yeast extract, 2% glucose, 1.5% agar).
(§2) Yeast colonies were then removed from YPD medium plates and suspended in a 0.9% NaCl saline solution, in which the cell concentration was estimated by optical microscopy using Kova counting slides.
(§3) A dilution was performed to obtain 15 ml of an inoculum at 3×10^6 CFU/ml, in a synthetic complete (SC) medium at pH 7 (2% glucose, 0.5% ammonium sulfate, 0.17% nitrogen-containing yeast base, 0.2% synthetic complete mixture, and 10% HEPES 1.5M pH 7.2) for C. albicans, C. parapsilosis, C. tropicalis and C. krusei, and in a solution of RPMI 1640 pH 7.3 (10% HEPES 1M pH 7.2) for C. glabrata, so as to reduce the formation of septa and clusters.
(§4) 1 ml of inoculum was then added to 2 ml of antifungal solution prepared in an SC or RPMI medium depending on the species of fungus, so as to obtain a final concentration of yeast of 10^6 CFU/ml and the desired concentration of antifungal agent according to table 1.
(§5) After homogenisation, the cultures were placed at 30° C. at 200 rpm, with the exception of cultures of C. glabrata, which were placed at 35° C. at 200 rpm, and incubated for a period of 6.5 h or 24 h.
(§6) After incubation, 100 μl of the culture of fungi obtained above were transferred in triplicate to 96-well plates, and 2.5 μl of Calcofluor White (CFW) were added to each well so as to mark the chitin of the cell walls of the yeasts.
(§7) A step of acquiring images by automated fluorescence microscopy (ScanR screening station, Olympus), using a 40× lens and a CFW filter, made it possible to obtain 30 images per well so as to capture enough cells to provide statistically significant data. These images were analysed by software (ScanR analysis software, Olympus). Firstly, the background noise was processed so as to improve the contrast between the fluorescence of the yeasts and background noise. A pixel threshold was then defined. Segmentation of the fluorescent elements present in each of the acquired images was then performed using an algorithm predefined in the software, making it possible to determine the limit of each element on the basis of the fluorescence intensity of said element. A size parameter was then applied to select the yeasts and eliminate the aggregates and the fluorescent debris.
(§8) Each element then corresponding to a yeast, it was thus possible, on the basis of these elements predefined beforehand, to define the fluorescence intensity for each of the yeasts, this intensity being directly correlated with the chitin content of their wall.
(§9) On the basis of said defined elements, it was also possible to automatically count the yeasts,
The strain ATCC®7349 of C. tropicalis was cultivated as described in paragraph I of the Examples section so as to obtain an inoculum at 3×10^6 CFU/ml in 15 ml of SC medium.
(§10) 2 ml of fluconazole solution prepared in the SC medium were then added to 1 ml of this inoculum so as to obtain a final concentration of yeast of 10^6 CFU/ml and of 16 μg/ml in fluconazole.
(§11) The inoculum was treated in the same way so as to obtain cultures of 10^6 CFU/ml and the following concentrations of fluconazole: 0.015 μg/ml, 0.031 μg/ml, 0.062 μg/ml, 0.125 μg/ml, 0.25 μg/ml, 0.5 μg/ml, 1 μg/ml, 2 μg/ml, 4 μg/ml, 8 μg/ml, 16 μg/ml.
After incubation for 24 h at 30° C. with stirring at 200 rpm, 100 μl of each culture were removed and transferred to 96-well plates. This procedure was performed in triplicate, and 2.5 μl of CFW were then added to each well.
(§12) The chitin level in the cell wall of the yeasts was then measured by […] analysis (HCA) microscopy, as described in paragraph II of the Examples section, in triplicate for each condition of concentration of fluconazole and without fluconazole. […]

[2] = test system: strain ATCC®7349 of C. tropicalis; experiment: Etest method (MIC); format: cell-based, Candida tropicalis; settings: for MIC: Candida tropicalis, read-out: MIC (Etest method)
Description: (§13) The Etest® method is a commercial test for determining the sensitivity of a strain, most frequently used routinely in clinical mycology laboratories.
(§14) The Etest® tests were performed according to the manufacturer's instructions. After distributing a standardised Mac Farland 0.5 inoculum (equivalent of […]) over plates of RPMI medium, said plates were incubated for 24 h at 35° C., with the exception of C. glabrata in which case the incubation was extended to 48 h so as to be able to determine the minimum inhibitory concentration (MIC).
(§15) The results of the MICs obtained were interpreted in accordance with the tables of the CLSI (Clinical and Laboratory Standards Institute) and/or of EUCAST (European Committee on Antimicrobial Susceptibility Testing) (Arendrup M C, Cuenca-Estrella M, Lass-Flörl C, Hope W W (2014) Breakpoints for antifungal agents: an update from EUCAST focussing on echinocandins against Candida spp and triazoles against Aspergillus spp. Drug Resist Updat 16(6):81-95. doi:10.1016/j.drup.2014.01.001) (cf. Table 2 taken from Maubon D, Garnaud C, Calandra T, et al. (2014) Resistance of Candida spp. to antifungal drugs in the ICU: where are we now? Intensive Care Med. doi: 10.1007/s00134-014-3404-7) which list the clinical thresholds (CBPs) for the most common species of yeast of the genus Candida as a function of different antifungal agents, or according to the table of epidemiological thresholds (ECVs).

[3] = test system: strain ATCC®22019 of C. parapsilosis; experiment: Sensitivity test by HCA microscopy (chitin level, Calcofluor White; cell count); format: cell-based, Candida parapsilosis; settings: SC medium; for decrease of the number of cells / increase of the chitin level in the wall of the cells: vs cells in the absence of antifungal agent
Description: as §1, §2, §3, §4, §5, §6, §7, §8, §9
The strain ATCC®22019 of C. parapsilosis was cultivated as described in paragraph I of the Examples section so as to obtain an inoculum at 3×10^6 CFU/ml in 15 ml of SC medium.
as §10, §11
After incubation for 6.5 h at 30° C. with stirring at 200 rpm, 100 μl of each culture were removed and transferred to 96-well plates. This procedure was performed in triplicate, and 2.5 μl of CFW were then added to each well.
as §12

[4] = test system: strain ATCC®22019 of C. parapsilosis; experiment: Etest method (MIC); format: cell-based, Candida parapsilosis; settings: for MIC: Lodderomyces parapsilosis, read-out: MIC (Etest method)
Description: as §13, §14, §15

[5] = ATCC7349, RPMI medium plates, 24 h at 35° C.
[6] = RPMI medium plates, 24 h at 35° C.
[7] = 6.5 h at 30° C., concentration gradient of Table 1
[8] = ATCC22019, RPMI medium plates, 24 h at 35° C.

Row | SMILES | phenotype of the strain with respect to the antifungal agent (HCA) ([1]; 24 h at 30° C.) | decrease of the number of cells ([1]; 24 h at 30° C.) | increase of the chitin level in the wall of the cells ([1]; 24 h at 30° C.) | MIC [2, 5] [µg/mL] | phenotype by Etest MIC, interpretation by the EUCAST and/or CLSI tables [2, 6] | phenotype of the strain with respect to the antifungal agent (HCA) ([3]; 6.5 h at 30° C.) | decrease of the number of cells ([3]; 6.5 h at 30° C.) | increase of the chitin level in the wall of the cells [3, 7] | MIC [4, 8] [µg/mL] | phenotype by Etest MIC, interpretation by the EUCAST and/or CLSI tables [4, 6] | phenotype of the strain with respect to the antifungal agent (HCA) ([1]; 6.5 h at 30° C.) | decrease of the number of cells ([1]; 6.5 h at 30° C.) | increase of the chitin level in the wall of the cells ([1]; 6.5 h at 30° C.) | MIC ([2]; ATCC7349, 24 h) [µg/mL] | phenotype of the strain with respect to the antifungal agent (HCA) ([3]; 24 h at 30° C.) | decrease of the number of cells ([3]; 24 h at 30° C.) | increase of the chitin level in the wall of the cells ([3]; 24 h at 30° C., concentration gradient up to 1 μg/ml) | MIC ([4]; ATCC22019, 24 h) [µg/mL]
1 | OC(Cn1cncn1)(Cn1cncn1)c1ccc(F)cc1F [fluconazole] | sensitive (an increase in the chitin level greater than or equal to 20% is observed compared to the chitin level of a population of cells of said fungus in the absence of antifungal agent, as well as a decrease in the number of cells of at least 0.3 log) | at least 0.3 log | greater than or equal to 20% | 0.38 (≈ 1.24 µM) | sensitive | sensitive (an increase in the chitin level greater than or equal to 20% is observed compared to the chitin level of a population of cells of said fungus in the absence of antifungal agent, as well as a decrease in the number of cells of at least 0.3 log) | at least 0.3 log | greater than or equal to 20% | 1 (≈ 3.27 µM) | sensitive |  |  |  |  |  |  |  | 
2 | CCCCCOc1ccc(-c2cc(-c3ccc(C(=O)N[C@H]4C[C@@H](O)[C@@H](O)NC(=O)[C@@H]5[C@@H](O)[C@@H](C)CN5C(=O)[C@H]([C@H](O)CC(N)=O)NC(=O)[C@H]([C@H](O)[C@@H](O)c5ccc(O)c(OS(=O)(=O)O)c5)NC(=O)[C@@H]5C[C@@H](O)CN5C(=O)[C@H]([C@@H](C)O)NC4=O)cc3)no2)cc1 [micafungin] (X1-[Orn(4R-OH,5R-OH)]T[Hyp][hTyr(3S-OH,4S-OH,3'-OSO3H)][Gln(3R-OH)][Pro(3S-OH,4S-Me)]; lactam 1-C) |  |  |  |  | sensitive |  |  |  |  | sensitive | sensitive (an increase in the chitin level greater than or equal to 20% is observed compared to the chitin level of a population of cells of said fungus in the absence of antifungal agent, as well as a decrease in the number of cells of at least 0.3 log) | at least 0.3 log | greater than or equal to 20% | 0.016 (≈ 0.0126 µM) | sensitive (an increase in the chitin level greater than or equal to 20% is observed compared to the chitin level of a population of cells of said fungus in the absence of antifungal agent, as well as a decrease in the number of cells of at least 0.3 log) | at least 0.3 log | greater than or equal to 20% | 0.19 (≈ 0.15 µM)
3 | C[C@@H](c1ncncc1F)[C@](O)(Cn1cncn1)c1ccc(F)cc1F [voriconazole] |  |  |  | 0.023 (≈ 0.0658 µM) | sensitive | sensitive (an increase in the chitin level greater than or equal to 20% is observed compared to the chitin level of a population of cells of said fungus in the absence of antifungal agent, as well as a decrease in the number of cells of at least 0.3 log) | at least 0.3 log | greater than or equal to 20% | 0.023 (≈ 0.0658 µM) | sensitive | sensitive (an increase in the chitin level greater than or equal to 20% is observed compared to the chitin level of a population of cells of said fungus in the absence of antifungal agent, as well as a decrease in the number of cells of at least 0.3 log) | at least 0.3 log | greater than or equal to 20% |  |  |  |  | 
